Where a name gives a salt, the structure may show the parent alone. Values belong to the compound of their own block, whether it stands above or below them.
How the values were obtained:
[1] = target: T1, Osh4 (Saccharomyces cerevisiae, UniProt P35844); assay: Microscale thermophoresis (MST) ligand binding; details: Osh4, pH 7.5, 50 nM protein
T1 construct: made in house; host or cells: E. coli BL21
Experimental: (§1) This polyhistidine-tagged protein is site-specific fluorescently labeled (RED-tris-NTA, green star). The labeled protein is incubated with varying concentrations of ligand, loaded into glass capillaries, the capillaries are locally heated with an infrared (IR) laser, generating a temperature gradient, and the rate of temperature-induced diffusion of the ligand-bound protein was recorded and plotted as a function of ligand concentration. B, sterol binding by Pry1, NPC2, Osh4, and STARD1 measured by MST. […] Binding by Pry1, Osh4 was assessed at pH 7.5, STARD1 at pH 8.5, and NPC2 binding affinity was determined at pH 5.5. […] Data shown in panelB represent the mean ± SD of three independent experiments. MST, microscale thermophoresis; NPC2, Niemann-Pick type C2; Pry, pathogen-related in yeast; STARD1, steroidogenic acute regulatory protein 1.
(§2) Purified proteins were fluorescently labeled using the RED-tris-NTA His tag protein labeling kit (NanoTemper Technologies) ([52]). […] Binding by Pry1, Osh4, and the StARkin domains was assessed at pH 7.5, STARD1 at pH 8.5, and NPC2 binding affinity was determined at pH 5.5.
(§3) Samples were centrifuged for 5 min at 15,000g at 4 °C and loaded into standard MST capillaries. The dissociation constant Kd was determined by plotting the fraction of ligand-bound protein against the logarithm of the ligand concentrations, using Prism software (GraphPad).

[2] = target: T2, Pry1 (Saccharomyces cerevisiae, UniProt P47032); assay: Microscale thermophoresis (MST) ligand binding; details: Pry1, pH 7.5, 50 nM protein
T2 construct: made in house; host or cells: E. coli BL21
T2 sequence (P47032 20-299): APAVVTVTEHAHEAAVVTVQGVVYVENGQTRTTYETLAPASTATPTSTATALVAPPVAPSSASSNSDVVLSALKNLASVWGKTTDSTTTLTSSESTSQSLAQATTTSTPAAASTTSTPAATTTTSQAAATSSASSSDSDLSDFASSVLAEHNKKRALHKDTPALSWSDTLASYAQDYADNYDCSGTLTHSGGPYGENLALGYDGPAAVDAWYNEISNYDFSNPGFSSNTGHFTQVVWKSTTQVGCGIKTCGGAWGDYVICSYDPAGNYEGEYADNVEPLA
Experimental: as §1, §2, §3

[3] = target: T3, STARD1 (Homo sapiens, UniProt P49675); assay: Microscale thermophoresis (MST) ligand binding; details: STARD1, pH 8.5, 50 nM protein
T3 construct: made in house; host or cells: E. coli BL21
T3 sequence (P49675 64-285): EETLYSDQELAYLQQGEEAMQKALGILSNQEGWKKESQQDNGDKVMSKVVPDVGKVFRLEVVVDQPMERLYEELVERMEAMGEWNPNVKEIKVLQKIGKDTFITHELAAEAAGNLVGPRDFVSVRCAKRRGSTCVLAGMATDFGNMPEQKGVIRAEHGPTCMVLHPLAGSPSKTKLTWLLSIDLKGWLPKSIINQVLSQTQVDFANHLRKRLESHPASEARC
Experimental: as §1, §2, §3

[4] = target: T4, Lam5 (ΔTMD) (Saccharomyces cerevisiae, UniProt P43560); assay: Microscale thermophoresis (MST) ligand binding; details: soluble Lam5 (ΔTMD)
T4 construct: Lam5 (1–633 aa), and Lam6 (1–621 aa); made in house; host or cells: E. coli BL21
T4 sequence (P43560 1-633): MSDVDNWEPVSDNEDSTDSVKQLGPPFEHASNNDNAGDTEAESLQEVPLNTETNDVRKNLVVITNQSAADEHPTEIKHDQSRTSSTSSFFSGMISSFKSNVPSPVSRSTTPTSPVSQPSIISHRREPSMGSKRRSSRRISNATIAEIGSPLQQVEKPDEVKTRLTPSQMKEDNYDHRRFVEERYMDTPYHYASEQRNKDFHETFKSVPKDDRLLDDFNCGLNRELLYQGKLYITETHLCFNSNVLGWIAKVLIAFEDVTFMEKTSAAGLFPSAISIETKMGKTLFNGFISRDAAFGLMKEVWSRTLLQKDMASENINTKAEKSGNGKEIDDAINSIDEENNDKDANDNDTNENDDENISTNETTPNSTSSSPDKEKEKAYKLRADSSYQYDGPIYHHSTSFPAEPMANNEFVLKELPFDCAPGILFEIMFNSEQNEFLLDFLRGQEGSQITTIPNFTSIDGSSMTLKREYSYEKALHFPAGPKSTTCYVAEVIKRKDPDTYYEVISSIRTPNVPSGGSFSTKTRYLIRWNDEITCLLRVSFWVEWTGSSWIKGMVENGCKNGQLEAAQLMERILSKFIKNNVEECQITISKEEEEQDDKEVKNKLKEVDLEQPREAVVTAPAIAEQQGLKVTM
From the text: (§4) To corroborate these in vivo findings, we expressed soluble versions (ΔTMD) of Lam5 and Lam6 as polyhistidine-tagged proteins and assessed their sterol binding capacity using MST.

[5] = target: T5, Lam6 (ΔTMD) (Saccharomyces cerevisiae, UniProt Q08001); assay: Microscale thermophoresis (MST) ligand binding; details: soluble Lam6 (ΔTMD)
T5 construct: Lam5 (1–633 aa), and Lam6 (1–621 aa); made in house; host or cells: E. coli BL21
T5 sequence (Q08001 1-621): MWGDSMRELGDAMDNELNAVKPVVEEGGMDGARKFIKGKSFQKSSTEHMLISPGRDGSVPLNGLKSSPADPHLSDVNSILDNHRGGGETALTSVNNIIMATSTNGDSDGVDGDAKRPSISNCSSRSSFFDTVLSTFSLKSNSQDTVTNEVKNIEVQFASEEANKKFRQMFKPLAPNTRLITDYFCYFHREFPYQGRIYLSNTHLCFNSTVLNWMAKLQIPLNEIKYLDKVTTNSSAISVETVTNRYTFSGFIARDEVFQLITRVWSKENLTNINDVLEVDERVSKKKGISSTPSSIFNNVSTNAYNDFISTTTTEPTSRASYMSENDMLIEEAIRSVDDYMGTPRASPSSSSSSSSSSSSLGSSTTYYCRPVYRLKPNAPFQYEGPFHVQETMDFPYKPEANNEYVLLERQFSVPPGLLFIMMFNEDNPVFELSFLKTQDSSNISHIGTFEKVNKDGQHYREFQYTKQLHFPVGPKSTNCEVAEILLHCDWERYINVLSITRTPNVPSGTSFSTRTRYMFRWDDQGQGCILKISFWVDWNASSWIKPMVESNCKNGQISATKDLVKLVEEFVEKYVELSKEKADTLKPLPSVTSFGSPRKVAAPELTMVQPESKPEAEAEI
From the text: as §4

[6] = target: T6, Lam4^StARkin1 (Saccharomyces cerevisiae, UniProt P38800); assay: Microscale thermophoresis (MST) ligand binding; details: Lam4^StARkin1, pH 7.5
T6 construct: both StARkin domains of Lam4 (StARkin1, 758–930 aa, 20.3 kDa); made in house; host or cells: E. coli BL21
T6 sequence (P38800 758-930): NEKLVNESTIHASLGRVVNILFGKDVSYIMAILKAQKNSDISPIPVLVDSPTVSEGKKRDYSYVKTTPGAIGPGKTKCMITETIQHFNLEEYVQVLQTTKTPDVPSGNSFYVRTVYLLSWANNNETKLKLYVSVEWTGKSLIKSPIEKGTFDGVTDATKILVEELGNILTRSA
From the text: (§5) To further characterize these domains, we expressed and purified Ysp1^StARkin, Sip3^StARkin, Lam4^StARkin1, and Lam4^StARkin2 from bacterial cells and assessed their sterol-binding affinities using MST.

[7] = target: T7, Lam4^StARkin2 (Saccharomyces cerevisiae, UniProt P38800); assay: Microscale thermophoresis (MST) ligand binding; details: Lam4^StARkin2, pH 7.5
T7 construct: StARkin2, 967–1139 aa, 34.6 kDa; made in house; host or cells: E. coli BL21
T7 sequence (P38800 967-1139): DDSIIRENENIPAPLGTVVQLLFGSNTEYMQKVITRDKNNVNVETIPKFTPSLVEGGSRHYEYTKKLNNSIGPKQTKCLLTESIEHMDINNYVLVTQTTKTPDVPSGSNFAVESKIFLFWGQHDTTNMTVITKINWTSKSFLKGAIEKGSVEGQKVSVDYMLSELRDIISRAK
From the text: as §5

[8] = target: T8, Ysp1^StARkin (Saccharomyces cerevisiae, UniProt P38851); assay: Microscale thermophoresis (MST) ligand binding; details: pH 7.5
T8 construct: Ysp1^StARkin (765–978 aa, 26.9 kDa); made in house; host or cells: E. coli BL21
T8 sequence (P38851 765-978): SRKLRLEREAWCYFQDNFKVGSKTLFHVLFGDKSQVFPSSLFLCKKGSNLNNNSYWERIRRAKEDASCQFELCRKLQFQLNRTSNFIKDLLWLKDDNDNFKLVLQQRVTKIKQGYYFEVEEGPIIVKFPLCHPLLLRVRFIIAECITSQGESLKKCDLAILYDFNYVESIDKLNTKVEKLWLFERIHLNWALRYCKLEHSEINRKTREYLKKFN
From the text: as §5

[9] = target: T9, Sip3^StARkin (Saccharomyces cerevisiae, UniProt P38717); assay: biochemical; format: binding
T9 construct: Sip3^StARkin (733–1002 aa, 32.5 kDa); made in house; host or cells: Lactococcus lactis DML1
T9 sequence (P38717 733-1002): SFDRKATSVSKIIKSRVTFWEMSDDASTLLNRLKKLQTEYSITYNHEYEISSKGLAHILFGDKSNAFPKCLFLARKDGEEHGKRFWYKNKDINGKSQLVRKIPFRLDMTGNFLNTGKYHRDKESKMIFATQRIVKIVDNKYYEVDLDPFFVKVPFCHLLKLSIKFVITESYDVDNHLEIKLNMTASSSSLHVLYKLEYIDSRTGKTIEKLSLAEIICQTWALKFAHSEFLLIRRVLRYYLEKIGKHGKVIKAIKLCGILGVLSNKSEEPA
Experimental: as §5, §2, §3

[10] = target: T10, NPC2 (Homo sapiens, UniProt P61916); assay: In vitro radioligand binding assay with [3H]-cholesterol; details: NPC2, pH 5.5, 100 pmol protein
T10 construct: made in house; host or cells: E. coli
T10 sequence (P61916 20-151): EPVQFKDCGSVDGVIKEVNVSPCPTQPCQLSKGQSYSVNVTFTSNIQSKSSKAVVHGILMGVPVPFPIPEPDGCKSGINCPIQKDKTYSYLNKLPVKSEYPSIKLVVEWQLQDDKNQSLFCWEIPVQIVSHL
From the text: (§6) To validate these in vivo findings with independent in vitro approaches, Pry1, NPC2, Osh4, and STARD1 were expressed as C terminally polyhistidine-tagged proteins in Escherichia coli and purified using Ni^2+-NTA agarose beads. […] Protein-bound radioligand was separated from unbound ligand by absorption to an ion-exchange matrix ([13], [51]) (Fig. 2A).
(§7) Schematic representation of the workflow of the in vitro lipid binding assay. Purified proteins (blue, 100 pmol), different concentrations of radiolabeled [^3H]-cholesterol (green, 0–400 pmol) are incubated together to allow binding. Proteins were separated from unbound ligand by adsorption to an ion exchange matrix (gray), followed by washing steps. The protein-bound ligand is then eluted and quantified by liquid scintillation counting. Nonspecific binding is assessed in parallel by performing the assay in the absence of protein.
(§8) The in vitro radioligand binding assay was performed essentially as previously described ([13], [39]). Purified proteins (100 pmol) were incubated with 100 to 400 pmol of [^3H]-cholesterol (1 mCi/ml, specific activity 50 Ci/mmol; American Radiolabeled Chemicals, Inc), in binding buffer for 1 h at 30 °C. The pH of the binding buffer was adjusted based on the isoelectric point of the protein: for Pry1 and Osh4, 20 mM Tris (pH 7.5), 30 mM NaCl; for STARD1, the same buffer at pH 8.5; and for NPC2, 20 mM potassium acetate (pH 5.5), 30 mM NaCl.
(§9) Proteins were then separated from unbound ligand by adsorption to SP Sepharose (GE Healthcare) beads for NPC2, and to Q Sepharose beads (GE Healthcare) beads for all other proteins. Beads were washed and proteins were eluted with binding buffer containing 1 M NaCl. Protein-bound radioligand was quantified by scintillation counting. Ion exchange beads without protein were used to define nonspecific binding. Data were analyzed using Prism software (GraphPad) and are presented as the mean ± SD from three independent experiments.

[11] = target: T1, Osh4; assay: as above; details: Osh4, pH 7.5, 100 pmol protein
From the text: as §6, §7, §8, §9

[12] = target: T2, Pry1; assay: as above; details: Pry1, pH 7.5, 100 pmol protein
From the text: as §6, §7, §8, §9

[13] = target: T11, StARkin domain of Lam6 (Saccharomyces cerevisiae, UniProt Q08001); assay: MST protein-liposome binding; details: Fig. 7F, StARkin domain of Lam6, DOPC/DOPE 80/20 mol% liposomes
T11 construct: Lam6^StARkin (401–579 aa, 22 kDa); made in house; host or cells: Lactococcus lactis DML1
T11 sequence (Q08001 401-579): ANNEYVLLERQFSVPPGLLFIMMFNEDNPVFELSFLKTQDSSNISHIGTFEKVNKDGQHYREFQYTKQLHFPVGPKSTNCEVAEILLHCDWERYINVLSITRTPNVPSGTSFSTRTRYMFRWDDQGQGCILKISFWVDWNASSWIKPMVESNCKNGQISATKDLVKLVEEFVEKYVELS
Experimental: To test whether the GRAM domain of Lam6 could function as a coincidence detector recognizing both PS and ergosterol simultaneously, as observed with the GRAM domain of Aster-B/GRAM1b, we assessed liposome binding by isolated GRAM and StARkin domains ([58], [60]).
Lipids were dried from chloroform stock solutions using a rotary evaporator or under a gentle nitrogen gas stream. The dried lipid film was resuspended in 1 ml liposome buffer (25 mM Tris (pH 7.5), 50 mM NaCl) to a final concentration of 2 mM phospholipids. The phospholipid suspension was then subjected to ten freeze-thaw cycles, alternating between liquid nitrogen and a 55 °C water bath.
The resulting multilamellar liposomes were extruded nineteen times through a polycarbonate filter of 0.8 μm pore size to generate large unilamellar vesicles.

Compound: CC(C)CCC[C@@H](C)[C@H]1CC[C@H]2[C@@H]3CC=C4C[C@@H](OS(=O)(=O)O)CC[C@]4(C)[C@H]3CC[C@]12C [cholesterol sulfate]
Kd [1]: 1690 nM
Kd [2]: 1750 nM
Kd [3]: 64 nM
Kd [4]: 290 nM
Kd [5]: 90 nM
Kd [6]: 71 nM
Kd [7]: 340 nM
Kd [8]: 47 nM
Kd [9]: 530 nM

Kd [10]: 1600 nM
Kd [11]: 2300 nM
Kd [12]: 2400 nM
Compound: CC(C)CCC[C@@H](C)[C@H]1CC[C@H]2[C@@H]3CC=C4C[C@@H](O)CC[C@]4(C)[C@H]3CC[C@]12C [cholesterol]

Compound: CC(C)[C@@H](C)/C=C/[C@@H](C)[C@H]1CC[C@H]2C3=CC=C4C[C@@H](O)CC[C@]4(C)[C@H]3CC[C@]12C [ergosterol]
Kd [13]: 8600 ± 3400 nM

Reference: publication PMC12493155, “A yeast-based in vivo assay complements in vitro and in silico approaches to characterize sterol-binding by Saccharomyces cerevisiae Lam/Ltc proteins” (The Journal of Biological Chemistry, 2025)
